Reference: patent US20220082578A1, “METHOD OF Q[…]'S MAIN METABOLITES, PSILOCIN AND 4-HYDROXYINDOLE-3-ACETIC ACID, IN HUMAN PLASMA” (Universitätsspital Basel, priority 2020, published 2022)
Like-named read-outs stand apart in the source and are kept apart here.

Key:
[1] = Pharmacokinetics of psilocin and 4-HIAA in plasma of healthy volunteers after a single oral dose of 25 mg psilocybin (LC-MS/MS); assay type: in vivo, human; settings: for Cmax / Tmax / AUC(0-t) / half-life: human; for Cmax / Tmax: po, 25 mg; for AUCLAST relative to AUCLAST of psilocin: 0-420 min
Experimental: To examine the application of the developed method, psilocin and 4-HIAA concentrations were quantified in plasma samples of three healthy volunteers receiving a single oral dose of 25 mg psilocybin. This is a moderate to high dose currently used in clinical phase 2-3 studies. The study was approved by the Ethical Committee of Northwestern and Central Switzerland (EKNZ, BASEC ID: 2019-00223), registered at ClinicalTrials.gov (ID: NCT03912974), and conducted in accordance with the Declaration of Helsinki and International Conference on Harmonization Guidelines in Good Clinical Practice. All volunteers provided written informed consent prior to study participation.
To establish concentration time profiles, blood samples were collected in lithium heparin coated tubes at the following time points: 2 hours before and 0, 15, 30, 45, 60, 90, 120, 150, 180, 240, 300, 360, and 420 minutes after treatment. Blood samples were centrifuged for 10 minutes at 3000 rpm to obtain plasma, which was transferred into cryotubes. All samples were stored −80° C. until analysis.
Study, calibration, and QC samples were processed as described before. In addition, the total amount of glucuronide conjugated psilocin and 4-HIAA was determined similar to the protocol of Kamata et al. (2006). In brief, 5 μl of Escherichia coli deglucuronidase (3000 units/ml in water) was mixed with 50 μl plasma sample. An aliquot of 100 μl acetic acid buffer (0.1 M) was added to the mixture. The samples were incubated for 3 hours at 37° C. in a thermomixer (Eppendorf, Hamburg, Germany). Enzymatic reaction was terminated, and samples extracted by the addition of 150 μl methanol. The samples were vortex mixed and centrifuged as outlined above.
For each analytical run, a calibration line was analysed at the beginning and at the end of the measurements. In between, the study samples of the three volunteers were measured as well as triplicates of LLOQ, QCLOW, QCMID, and QCHIGH samples. Samples with a concentration below the LLOQ were marked as blq (below limit of quantification) and samples with concentrations above the ULOQ were diluted with blank plasma into the calibration range.
The concentration-time profile was plotted and the maximal plasma concentration (Cmax) and time to reach it (Tmax) were obtained graphically from the plots. Pharmacokinetic parameters were calculated using non-compartmental methods in Phoenix WinNonlin 8.3 (Certara, N.J., USA). The area under the plasma concentration time profile was calculated by using the linear trapezoidal rule from 0-420 min (AUCLAST). The elimination half-life (t1/2) was calculated by the equation
where the elimination rate constant (λ) was the slope of log(C(t)) versus t determined in the terminal elimination phase.

[2] = Stability of psilocin and 4-HIAA in plasma under different storage conditions; assay type: physicochemical; settings: human plasma, frozen at −20° C., thawed at room temperature
Experimental: The stability of psilocin and 4-HIAA in plasma were investigated under different storage conditions. Seven replicates of LLOQ, QCLOW, QCMID, and QCHIGH samples were stored for 8 hours at room temperature (bench-top stability) and for 1 month at −20° C. (one-month stability). Moreover, the stability was assessed after three consecutive freeze and thaw cycles (freeze/thaw stability), thereby freezing the QC samples at −20° C. for at least 24 hours and thawing them afterwards at room temperature. The concentration of those stability test samples was calculated based on a freshly prepared calibration line. Samples were designated to be stable if the accuracy was between 85-115% (LLOQ: 80-120%) and the precision ≤15% (LLOQ: ≤20%).

[3] = cited from earlier work
[4] = plasma, average of three healthy volunteers, oral 25 mg psilocybin, read-out: maximal plasma level (Cmax)
[5] = plasma, plasma, three healthy volunteers, oral dose of 25 mg psilocybin, read-out: Cmax ± SD
[6] = plasma, three healthy volunteers, oral dose of 25 mg psilocybin
[7] = area under the plasma concentration time curve until 7 h post treatment, oral 25 mg psilocybin
[8] = after oral administration of psilocybin

| SMILES | plasma concentration (not detectable at limit of detection) ([1]; plasma of volunteers who received 25 mg psilocybin) | Cmax [1, 4] | Cmax [1, 5] | Tmax [1, 6] | AUC(0-t) [1, 7] | half-life [1, 6] | Tmax ± SD [1, 6] | glucuronide conjugation in plasma ([1]; samples reanalysed after deglucuronidation with Escherichia coli glucuronidase) | accuracy of QC samples after three freeze and thaw cycles [2] | elimination half-life [3, 8] | peak concentrations in plasma [3, 8] | time to peak plasma concentration [3, 8] | fraction excreted from body as psilocin-O-glucuronide ([3]; in vivo) | AUCLAST relative to AUCLAST of psilocin ([1]; oral 25 mg psilocybin) | AUClast [1, 7] | maximal plasma level (Cmax) ([1]; average of three healthy volunteers, oral 25 mg psilocybin) | t1/2 [1, 6] | Tmax ± SD ([1]; plasma, three healthy volunteers, oral dose of 25 mg psilocybin, listed as Psilocin-glucuronide) |
| --- | --- | --- | --- | --- | --- | --- | --- | --- | --- | --- | --- | --- | --- | --- | --- | --- | --- | --- |
| OCCc1c[nH]c2cccc(O)c12 [4-HTP, 4-hydroxytryptophol] | < 2.5 ng/mL | – | – | – | – | – | – | – | – | – | – | – | – | – | – | – | – | – |
| CN(C)CCc1c[nH]c2cccc(O)c12 [psilocin] | – | 19.2 ng/mL | 19.2 ± 4 ng/mL | 2 to 2.33 h | 61.2 ng·h/mL | 2.12 h | 2.33 ± 0.767 h | underwent extensive 0-glucuronidation | 105-108% | 2 to 3 h | 10 to 40 ng/mL | 1.5 to 2 h | 80% | – | – | – | – | – |
| O=C(O)Cc1c[nH]c2cccc(O)c12 [4-HIAA, 4-hydroxyindole-3-acetic acid] | – | 137 ng/mL | 137 ± 22 ng/mL | 2 to 2.33 h | 372 ng·h/mL | 2.32 h | 2 ± 1 h | – | 100-109% | – | – | – | – | about 5 fold | – | – | – | – |
| CN(C)CCc1c[nH]c2cccc(O[C@@H]3O[C@H](C(=O)O)[C@@H](O)[C@H](O)[C@H]3O)c12 [psilocin-glucuronide, psilocin-O-glucuronide] | – | – | – | – | – | – | roughly 220 min | – | – | – | – | – | – | 5-6 fold | 20631 ng·min/mL | 78.3 ng/mL | 3.58 ± 1.2 h | 3.67 ± 1.53 h |
